According to the NIST ThermoML archive (doi:10.1016/j.jct.2006.08.009):

Assay: mn = molality of the nth substance listed, in mol/kg
Settings: 350 kPa, Liquid; for apparent molar heat capacity: Extra sensitive DSC

OCC(O)CO [glycerol] + O
Settings | apparent molar heat capacity [J/K/mol] | mass density [kg/m3]
278.15 K, m1 = 0.02 | 210 | 1000.56
278.15 K, m1 = 0.05 | 208 | 1001.19
278.15 K, m1 = 0.1 | 208.3 | 1002.32
278.15 K, m1 = 0.2501 | 206.7 | 1005.96
278.15 K, m1 = 0.5002 | 206 | 1011.28
278.15 K, m1 = 1.001 | 203.2 | 1021.37
278.15 K, m1 = 2 | 200 | 1040.06
278.15 K, m1 = 3.003 | 192.1 | 1056.11
278.15 K, m1 = 4.999 | 196.4 | 1082.51
283.15 K, m1 = 0.02 | 220 | 1000.32
283.15 K, m1 = 0.05 | 219 | 1000.93
283.15 K, m1 = 0.1 | 219.7 | 1002.05
283.15 K, m1 = 0.2501 | 218.3 | 1005.34
283.15 K, m1 = 0.5002 | 217.4 | 1010.56
283.15 K, m1 = 1.001 | 215.1 | 1020.54
283.15 K, m1 = 2 | 212.1 | 1038.67
283.15 K, m1 = 3.003 | 206.8 | 1054.65
283.15 K, m1 = 4.999 | 207.4 | 1080.68
288.15 K, m1 = 0.02 | 229 | 999.7
288.15 K, m1 = 0.05 | 227 | 1000.3
288.15 K, m1 = 0.1 | 227.7 | 1001.41
288.15 K, m1 = 0.2501 | 226.4 | 1004.63
288.15 K, m1 = 0.5002 | 225.6 | 1009.79
288.15 K, m1 = 1.001 | 223.5 | 1019.64
288.15 K, m1 = 2 | 220.6 | 1037.48
288.15 K, m1 = 3.003 | 215.7 | 1053.13
288.15 K, m1 = 4.999 | 215.28 | 1078.92
293.15 K, m1 = 0.02 | 235 | –
293.15 K, m1 = 0.05 | 233 | –
293.15 K, m1 = 0.1 | 234 | –
293.15 K, m1 = 0.2501 | 233 | –
293.15 K, m1 = 0.5002 | 232.3 | –
293.15 K, m1 = 1.001 | 230.4 | –
293.15 K, m1 = 2 | 227.5 | –
293.15 K, m1 = 3.003 | 222.75 | –
293.15 K, m1 = 4.999 | 221.83 | –
298.15 K, m1 = 0.02 | 240 | 997.59
298.15 K, m1 = 0.05 | 239 | 998.2
298.15 K, m1 = 0.1 | 239.7 | 999.29
298.15 K, m1 = 0.2501 | 238.6 | 1002.43
298.15 K, m1 = 0.5002 | 238 | 1007.48
298.15 K, m1 = 1.001 | 236.1 | 1017.07
298.15 K, m1 = 2 | 233.27 | 1034.46
298.15 K, m1 = 3.003 | 228.47 | 1049.73
298.15 K, m1 = 4.999 | 227.35 | 1074.96
303.15 K, m1 = 0.02 | 245 | –
303.15 K, m1 = 0.05 | 244 | –
303.15 K, m1 = 0.1 | 244.7 | –
303.15 K, m1 = 0.2501 | 243.6 | –
303.15 K, m1 = 0.5002 | 243 | –
303.15 K, m1 = 1.001 | 241.1 | –
303.15 K, m1 = 2 | 238.33 | –
303.15 K, m1 = 3.003 | 233.46 | –
303.15 K, m1 = 4.999 | 232.27 | –
308.15 K, m1 = 0.02 | 249 | 994.55
308.15 K, m1 = 0.05 | 248.4 | 995.16
308.15 K, m1 = 0.1 | 249 | 996.23
308.15 K, m1 = 0.2501 | 247.9 | 999.33
308.15 K, m1 = 0.5002 | 247.4 | 1004.29
308.15 K, m1 = 1.001 | 245.5 | 1013.67
308.15 K, m1 = 2 | 242.76 | 1030.71
308.15 K, m1 = 3.003 | 237.83 | 1045.67
308.15 K, m1 = 4.999 | 236.6 | 1070.41
313.15 K, m1 = 0.02 | 253 | –
313.15 K, m1 = 0.05 | 252.1 | –
313.15 K, m1 = 0.1 | 252.9 | –
313.15 K, m1 = 0.2501 | 251.9 | –
313.15 K, m1 = 0.5002 | 251.3 | –
313.15 K, m1 = 1.001 | 249.4 | –
313.15 K, m1 = 2 | 246.75 | –
313.15 K, m1 = 3.003 | 241.83 | –
313.15 K, m1 = 4.999 | 240.56 | –
318.15 K, m1 = 0.02 | 257 | 990.73
318.15 K, m1 = 0.05 | 255.7 | 991.32
318.15 K, m1 = 0.1 | 256.3 | 992.37
318.15 K, m1 = 0.2501 | 255.4 | 995.42
318.15 K, m1 = 0.5002 | 254.8 | 1000.34
318.15 K, m1 = 1.001 | 252.98 | 1009.55
318.15 K, m1 = 2 | 250.33 | 1026.3
318.15 K, m1 = 3.003 | 245.4 | 1041.09
318.15 K, m1 = 4.999 | 244.12 | 1065.4
323.15 K, m1 = 0.02 | 260 | –
323.15 K, m1 = 0.05 | 258.8 | –
323.15 K, m1 = 0.1 | 259.4 | –
323.15 K, m1 = 0.2501 | 258.6 | –
323.15 K, m1 = 0.5002 | 258 | –
323.15 K, m1 = 1.001 | 256.23 | –
323.15 K, m1 = 2 | 253.61 | –
323.15 K, m1 = 3.003 | 248.72 | –
323.15 K, m1 = 4.999 | 247.42 | –
328.15 K, m1 = 0.02 | 263 | 986.19
328.15 K, m1 = 0.05 | 261.7 | 986.78
328.15 K, m1 = 0.1 | 262.3 | 987.77
328.15 K, m1 = 0.2501 | 261.5 | 990.83
328.15 K, m1 = 0.5002 | 261 | 995.67
328.15 K, m1 = 1.001 | 259.22 | 1004.79
328.15 K, m1 = 2 | 256.62 | 1021.31
328.15 K, m1 = 3.003 | 251.8 | 1035.9
328.15 K, m1 = 4.999 | 250.48 | 1059.9
333.15 K, m1 = 0.02 | 266 | –
333.15 K, m1 = 0.05 | 264.5 | –
333.15 K, m1 = 0.1 | 265 | –
333.15 K, m1 = 0.2501 | 264.3 | –
333.15 K, m1 = 0.5002 | 263.72 | –
333.15 K, m1 = 1.001 | 262 | –
333.15 K, m1 = 2 | 259.44 | –
333.15 K, m1 = 3.003 | 254.69 | –
333.15 K, m1 = 4.999 | 253.36 | –
338.15 K, m1 = 0.02 | 268.5 | 981.05
338.15 K, m1 = 0.05 | 267 | 981.63
338.15 K, m1 = 0.1 | 267.6 | 982.65
338.15 K, m1 = 0.2501 | 266.8 | 985.63
338.15 K, m1 = 0.5002 | 266.28 | 990.4
338.15 K, m1 = 1.001 | 264.6 | 999.46
338.15 K, m1 = 2 | 262.07 | 1015.84
338.15 K, m1 = 3.003 | 257.43 | 1030.29
338.15 K, m1 = 4.999 | 256.04 | 1054
343.15 K, m1 = 0.02 | 270.6 | –
343.15 K, m1 = 0.05 | 269.2 | –
343.15 K, m1 = 0.1 | 269.8 | –
343.15 K, m1 = 0.2501 | 269.15 | –
343.15 K, m1 = 0.5002 | 268.63 | –
343.15 K, m1 = 1.001 | 266.97 | –
343.15 K, m1 = 2 | 264.48 | –
343.15 K, m1 = 3.003 | 259.94 | –
343.15 K, m1 = 4.999 | 258.51 | –
348.15 K, m1 = 0.02 | 272.9 | 975.36
348.15 K, m1 = 0.05 | 271.3 | 975.93
348.15 K, m1 = 0.1 | 271.9 | 976.93
348.15 K, m1 = 0.2501 | 271.31 | 979.9
348.15 K, m1 = 0.5002 | 270.82 | 984.63
348.15 K, m1 = 1.001 | 269.16 | 993.59
348.15 K, m1 = 2 | 266.71 | 1009.84
348.15 K, m1 = 3.003 | 262.29 | 1024.18
348.15 K, m1 = 4.999 | 260.82 | 1047.69
353.15 K, m1 = 0.02 | 274.8 | –
353.15 K, m1 = 0.05 | 273.1 | –
353.15 K, m1 = 0.1 | 273.9 | –
353.15 K, m1 = 0.2501 | 273.26 | –
353.15 K, m1 = 0.5002 | 272.82 | –
353.15 K, m1 = 1.001 | 271.17 | –
353.15 K, m1 = 2 | 268.75 | –
353.15 K, m1 = 3.003 | 264.53 | –
353.15 K, m1 = 4.999 | 262.96 | –
358.15 K, m1 = 0.02 | 276.3 | 969.12
358.15 K, m1 = 0.05 | 274.7 | 969.7
358.15 K, m1 = 0.1 | 275.6 | 970.69
358.15 K, m1 = 0.2501 | 274.92 | 973.64
358.15 K, m1 = 0.5002 | 274.47 | 978.33
358.15 K, m1 = 1.001 | 272.82 | 987.24
358.15 K, m1 = 2 | 270.44 | 1003.38
358.15 K, m1 = 3.003 | 266.6 | 1017.63
358.15 K, m1 = 4.999 | 264.75 | 1041.02
363.15 K, m1 = 0.02 | 277.1 | –
363.15 K, m1 = 0.05 | 275.5 | –
363.15 K, m1 = 0.1 | 276.5 | –
363.15 K, m1 = 0.2501 | 275.65 | –
363.15 K, m1 = 0.5002 | 275.17 | –
363.15 K, m1 = 1.001 | 273.45 | –
363.15 K, m1 = 2 | 271.04 | –
363.15 K, m1 = 3.003 | 268.61 | –
363.15 K, m1 = 4.999 | 265.49 | –
368.15 K, m1 = 0.02 | – | 962.42
368.15 K, m1 = 0.05 | – | 963
368.15 K, m1 = 0.1 | – | 963.94
368.15 K, m1 = 0.2501 | – | 966.88
368.15 K, m1 = 0.5002 | – | 971.55
368.15 K, m1 = 1.001 | – | 980.42
368.15 K, m1 = 2 | – | 996.47
368.15 K, m1 = 3.003 | – | 1010.68
368.15 K, m1 = 4.999 | – | 1033.93
